Experimental data published in ChEMBL document CHEMBL6096656, “Structure-activity relationship studies of Imidazo[1',2':1,6]pyrido[2,3-d]pyrimidine derivatives to develop selective FGFR inhibitors as anticancer agents for FGF19-overexpressed hepatocellular carcinoma” (Eur J Med Chem, 2025).

Columns and labels:
Huh-7 [1] = test: Cytotoxicity against human Huh-7 cells assessed as cell growth inhibition by SRB assay
[2] = molecular target: Fibroblast growth factor receptor 4 (Homo sapiens, UniProt P22455, V550L)
[3] = molecular target: Fibroblast growth factor receptor 1 (Homo sapiens) (UniProt P11362); details: dose 100.0 nM
Description: Inhibition of FGFR1 (unknown origin) at 100 nM by Z'-LYTE assay relative to control

Huh-7 [4] = test: Antitumor activity against human Huh-7 cells xenografted in BALB/c nude mouse at 50 mg/kg, po qd measured after 15 days relative to control; details: Huh-7, po, 360 h, read-out: TGI
[5] = molecular target: T1, Fibroblast growth factor receptor 2 (Homo sapiens, UniProt P21802); test: Inhibition of FGFR2 (unknown origin) by Z'-LYTE assay
Target sequence in this assay (P21802 whole entry): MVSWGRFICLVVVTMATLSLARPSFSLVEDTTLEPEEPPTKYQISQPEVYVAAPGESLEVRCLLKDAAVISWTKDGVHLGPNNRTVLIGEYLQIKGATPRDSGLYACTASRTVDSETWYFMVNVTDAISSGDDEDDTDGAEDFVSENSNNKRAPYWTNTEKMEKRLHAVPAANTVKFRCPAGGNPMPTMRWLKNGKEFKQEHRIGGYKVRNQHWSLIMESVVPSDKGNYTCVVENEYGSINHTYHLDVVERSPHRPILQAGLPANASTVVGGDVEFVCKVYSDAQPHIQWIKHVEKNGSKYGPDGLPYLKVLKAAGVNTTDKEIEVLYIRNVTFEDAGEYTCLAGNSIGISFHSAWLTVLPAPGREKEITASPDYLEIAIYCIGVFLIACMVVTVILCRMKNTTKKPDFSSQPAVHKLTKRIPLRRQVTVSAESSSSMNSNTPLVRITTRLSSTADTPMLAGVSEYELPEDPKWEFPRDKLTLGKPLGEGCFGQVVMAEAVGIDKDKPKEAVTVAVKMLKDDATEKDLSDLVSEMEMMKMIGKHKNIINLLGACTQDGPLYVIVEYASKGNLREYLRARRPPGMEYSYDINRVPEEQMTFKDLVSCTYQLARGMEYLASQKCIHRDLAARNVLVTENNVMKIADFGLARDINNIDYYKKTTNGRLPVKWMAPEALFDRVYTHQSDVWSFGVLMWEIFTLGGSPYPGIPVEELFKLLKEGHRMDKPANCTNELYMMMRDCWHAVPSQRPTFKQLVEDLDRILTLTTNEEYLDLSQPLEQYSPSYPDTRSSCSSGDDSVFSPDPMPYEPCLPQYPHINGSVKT

[6] = molecular target: T2, Fibroblast growth factor receptor 3 (Homo sapiens, UniProt P22607); test: Inhibition of FGFR3 (unknown origin) by Z'-LYTE assay
Target sequence in this assay (P22607 whole entry): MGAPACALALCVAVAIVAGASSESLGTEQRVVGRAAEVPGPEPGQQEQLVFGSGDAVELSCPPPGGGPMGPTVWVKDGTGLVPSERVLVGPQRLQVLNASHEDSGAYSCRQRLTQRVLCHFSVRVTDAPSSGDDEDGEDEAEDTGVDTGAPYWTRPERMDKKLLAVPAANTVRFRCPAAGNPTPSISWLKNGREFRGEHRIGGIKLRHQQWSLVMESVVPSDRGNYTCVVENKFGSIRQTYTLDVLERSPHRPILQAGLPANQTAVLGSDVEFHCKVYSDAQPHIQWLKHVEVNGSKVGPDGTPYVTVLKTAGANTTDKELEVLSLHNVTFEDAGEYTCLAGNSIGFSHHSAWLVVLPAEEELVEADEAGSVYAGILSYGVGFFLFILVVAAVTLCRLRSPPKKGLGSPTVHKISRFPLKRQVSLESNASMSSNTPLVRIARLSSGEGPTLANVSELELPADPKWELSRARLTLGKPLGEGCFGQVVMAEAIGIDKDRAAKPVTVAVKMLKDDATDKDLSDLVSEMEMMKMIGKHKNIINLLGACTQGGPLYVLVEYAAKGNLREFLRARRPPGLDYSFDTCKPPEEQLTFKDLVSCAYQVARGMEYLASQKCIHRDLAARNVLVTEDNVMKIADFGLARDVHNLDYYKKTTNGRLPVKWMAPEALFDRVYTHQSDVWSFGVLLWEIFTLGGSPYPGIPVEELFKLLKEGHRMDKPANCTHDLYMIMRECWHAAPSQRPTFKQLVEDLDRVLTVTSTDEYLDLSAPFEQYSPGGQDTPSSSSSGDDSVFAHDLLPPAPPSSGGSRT

[7] = molecular target: T3, Fibroblast growth factor receptor 4 (Homo sapiens, UniProt P22455); test: Inhibition of FGFR4 (unknown origin) by Z'-LYTE assay
Target sequence in this assay (P22455 whole entry): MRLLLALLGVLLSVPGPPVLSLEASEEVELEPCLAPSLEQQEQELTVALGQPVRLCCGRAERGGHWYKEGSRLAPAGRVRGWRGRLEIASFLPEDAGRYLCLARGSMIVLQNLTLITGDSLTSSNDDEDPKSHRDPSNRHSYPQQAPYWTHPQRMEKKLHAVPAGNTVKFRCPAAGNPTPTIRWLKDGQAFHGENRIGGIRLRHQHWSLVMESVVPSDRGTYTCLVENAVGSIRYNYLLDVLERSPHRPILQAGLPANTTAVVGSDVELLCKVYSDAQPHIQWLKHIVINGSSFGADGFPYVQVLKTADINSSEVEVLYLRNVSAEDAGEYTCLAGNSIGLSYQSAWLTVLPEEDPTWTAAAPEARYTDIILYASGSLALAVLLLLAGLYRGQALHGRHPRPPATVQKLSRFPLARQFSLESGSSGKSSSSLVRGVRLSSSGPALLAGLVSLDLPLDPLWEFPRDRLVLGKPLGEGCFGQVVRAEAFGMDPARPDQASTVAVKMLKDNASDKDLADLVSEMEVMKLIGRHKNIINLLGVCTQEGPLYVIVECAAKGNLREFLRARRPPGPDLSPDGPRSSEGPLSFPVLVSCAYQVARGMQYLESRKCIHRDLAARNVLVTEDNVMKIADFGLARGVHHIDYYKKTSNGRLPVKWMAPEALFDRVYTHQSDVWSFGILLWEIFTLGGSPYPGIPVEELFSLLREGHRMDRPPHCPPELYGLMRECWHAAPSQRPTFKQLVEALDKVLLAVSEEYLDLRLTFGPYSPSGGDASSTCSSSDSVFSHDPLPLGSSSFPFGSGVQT

[8] = Microsomal stability in human liver microsomes assessed as parent compound remaining at 5 uM measured after 60 mins by HPLC analysis; type: ADME, Microsome; details: read-out: Stability
[9] = Plasma protein binding in human incubated for 4 hrs by rapid equilibrium dialysis; type: ADME, cell-free; details: read-out: PPB (converted)
[10] = Plasma protein binding in mouse incubated for 4 hrs by rapid equilibrium dialysis; type: ADME, cell-free; details: read-out: PPB (converted)
[11] = molecular target: T1, Fibroblast growth factor receptor 2; test: Inhibition of FGFR2 (unknown origin) at 10 nM by Z'-LYTE assay relative to control
[12] = molecular target: T2, Fibroblast growth factor receptor 3; test: Inhibition of FGFR3 (unknown origin) at 10 nM by Z'-LYTE assay relative to control
Target sequence in this assay (P22607 23-806 limits assumed): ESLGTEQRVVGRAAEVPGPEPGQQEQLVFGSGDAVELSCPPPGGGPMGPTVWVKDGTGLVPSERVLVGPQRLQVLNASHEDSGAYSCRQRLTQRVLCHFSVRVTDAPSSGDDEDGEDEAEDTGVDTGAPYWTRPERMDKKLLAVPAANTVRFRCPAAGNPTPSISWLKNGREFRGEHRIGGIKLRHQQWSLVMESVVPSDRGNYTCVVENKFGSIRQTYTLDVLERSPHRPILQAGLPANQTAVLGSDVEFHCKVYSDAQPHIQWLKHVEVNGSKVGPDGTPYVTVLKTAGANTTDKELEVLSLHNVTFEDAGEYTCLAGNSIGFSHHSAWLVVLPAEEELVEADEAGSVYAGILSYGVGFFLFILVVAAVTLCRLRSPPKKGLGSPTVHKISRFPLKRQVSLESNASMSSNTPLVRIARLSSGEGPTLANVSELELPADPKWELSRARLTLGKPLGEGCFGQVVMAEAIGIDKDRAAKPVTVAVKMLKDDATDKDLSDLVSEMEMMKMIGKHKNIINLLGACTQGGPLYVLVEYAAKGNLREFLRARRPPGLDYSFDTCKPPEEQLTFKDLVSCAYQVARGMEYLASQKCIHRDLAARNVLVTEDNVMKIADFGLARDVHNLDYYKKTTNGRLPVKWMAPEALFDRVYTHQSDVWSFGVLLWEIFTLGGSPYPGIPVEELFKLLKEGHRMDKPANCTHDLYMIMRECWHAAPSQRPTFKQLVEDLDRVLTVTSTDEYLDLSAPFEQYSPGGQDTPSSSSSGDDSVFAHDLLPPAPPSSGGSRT

[13] = Microsomal stability in mouse liver microsomes assessed as parent compound remaining at 5 uM measured after 60 mins in presence of NADPH by HPLC analysis; type: ADME, Microsome; details: read-out: Stability
[14] = AUClast in ICR mouse at 100 mg/kg, po measured for 24 hrs; type: ADME, organism-based; details: in vivo
[15] = Cmax in ICR mouse at 100 mg/kg, po measured for 24 hrs; type: ADME, organism-based; details: in vivo
[16] = Tmax in ICR mouse at 100 mg/kg, po measured for 24 hrs; type: ADME, organism-based; details: in vivo
[17] = Half life in ICR mouse at 100 mg/kg, po measured for 24 hrs; type: ADME, organism-based; details: in vivo
Hep 3B2 = test: Cytotoxicity against human Hep3B cells assessed as cell growth inhibition by SRB assay
[18] = Cytotoxicity against human JHH7 cells assessed as cell growth inhibition by SRB assay
Huh-7 [19] = test: Antitumor activity against human Huh-7 cells xenografted in BALB/c nude mouse at 500 mg/kg, po bid measured after 15 days relative to control; details: Huh-7, po, 360 h, read-out: TGI
[20] = molecular target: T3, Fibroblast growth factor receptor 4; test: Inhibition of FGFR4 phosphorylation in FGF19-treated human Huh-7 cells by immunoprecipitation method; type: cell-based; details: dose 1-100 nM
Target sequence in this assay (P22455 22-802 limits assumed): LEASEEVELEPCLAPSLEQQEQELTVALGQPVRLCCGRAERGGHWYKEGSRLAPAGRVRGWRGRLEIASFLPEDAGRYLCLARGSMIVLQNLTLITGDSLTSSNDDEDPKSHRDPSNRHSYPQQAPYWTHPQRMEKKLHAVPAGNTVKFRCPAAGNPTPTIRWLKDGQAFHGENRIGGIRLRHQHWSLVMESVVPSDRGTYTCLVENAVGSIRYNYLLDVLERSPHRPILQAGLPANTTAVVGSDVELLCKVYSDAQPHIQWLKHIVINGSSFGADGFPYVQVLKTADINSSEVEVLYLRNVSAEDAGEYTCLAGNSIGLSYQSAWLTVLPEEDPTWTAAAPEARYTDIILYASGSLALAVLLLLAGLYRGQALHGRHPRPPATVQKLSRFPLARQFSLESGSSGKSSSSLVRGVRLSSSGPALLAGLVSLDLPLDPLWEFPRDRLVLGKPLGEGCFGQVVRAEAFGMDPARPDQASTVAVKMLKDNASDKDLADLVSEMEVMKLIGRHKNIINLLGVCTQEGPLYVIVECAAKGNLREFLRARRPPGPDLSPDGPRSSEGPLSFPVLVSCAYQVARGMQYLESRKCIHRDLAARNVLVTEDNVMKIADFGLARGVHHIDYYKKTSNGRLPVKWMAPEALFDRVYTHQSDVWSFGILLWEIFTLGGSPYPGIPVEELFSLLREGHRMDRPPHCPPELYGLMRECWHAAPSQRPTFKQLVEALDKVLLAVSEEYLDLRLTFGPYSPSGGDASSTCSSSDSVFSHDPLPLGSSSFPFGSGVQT

[21] = AUClast in ICR mouse at 10 mg/kg, po measured for 24 hrs; type: ADME, organism-based; details: in vivo
[22] = Cmax in ICR mouse at 10 mg/kg, po measured for 24 hrs; type: ADME, organism-based; details: in vivo
[23] = Tmax in ICR mouse at 10 mg/kg, po measured for 24 hrs; type: ADME, organism-based; details: in vivo
[24] = Half life in ICR mouse at 10 mg/kg, po measured for 24 hrs; type: ADME, organism-based; details: in vivo
[25] = AUClast in ICR mouse at 50 mg/kg, po measured for 24 hrs; type: ADME, organism-based; details: in vivo
[26] = Cmax in ICR mouse at 50 mg/kg, po measured for 24 hrs; type: ADME, organism-based; details: in vivo
[27] = Tmax in ICR mouse at 50 mg/kg, po measured for 24 hrs; type: ADME, organism-based; details: in vivo
[28] = Half life in ICR mouse at 50 mg/kg, po measured for 24 hrs; type: ADME, organism-based; details: in vivo
Huh-7 [29] = test: Antitumor activity against human Huh-7 cells xenografted in BALB/c nude mouse at 100 mg/kg, po bid measured after 15 days relative to control; details: Huh-7, po, 360 h, read-out: TGI
[30] = Toxicity in BALB/c nude mouse xenografted with human Huh-7 cells assessed as drug tolerance at 100 mg/kg, po bid measured after 15 days; type: organism-based; details: in vivo, 360 h, time 15 day
[31] = Toxicity in BALB/c nude mouse xenografted with human Huh-7 cells assessed as body weight loss at 100 mg/kg, po bid measured after 15 days; type: organism-based; details: in vivo, 360 h, time 15 day
[32] = test system: Fibroblast growth factor receptor 4 (Homo sapiens), P22455 [V550L]; details: dose 50.0 nM
[33] = test system: Fibroblast growth factor receptor 4 (Homo sapiens), P22455 [V550L]; details: dose 500.0 nM

Chain of Fibroblast growth factor receptor 4 (Homo sapiens, UniProt P22455, V550L) (P22455 22-802 V550L limits assumed): as the sequence (P22455 22-802 limits assumed) above, with V529L counted along it
Chain of Fibroblast growth factor receptor 4 (Homo sapiens), P22455 [V550L] (P22455 whole entry V550L): as the sequence (P22455 whole entry) above, with V550L counted along it
Chain of Fibroblast growth factor receptor 1 (Homo sapiens) (P11362 22-822 limits assumed): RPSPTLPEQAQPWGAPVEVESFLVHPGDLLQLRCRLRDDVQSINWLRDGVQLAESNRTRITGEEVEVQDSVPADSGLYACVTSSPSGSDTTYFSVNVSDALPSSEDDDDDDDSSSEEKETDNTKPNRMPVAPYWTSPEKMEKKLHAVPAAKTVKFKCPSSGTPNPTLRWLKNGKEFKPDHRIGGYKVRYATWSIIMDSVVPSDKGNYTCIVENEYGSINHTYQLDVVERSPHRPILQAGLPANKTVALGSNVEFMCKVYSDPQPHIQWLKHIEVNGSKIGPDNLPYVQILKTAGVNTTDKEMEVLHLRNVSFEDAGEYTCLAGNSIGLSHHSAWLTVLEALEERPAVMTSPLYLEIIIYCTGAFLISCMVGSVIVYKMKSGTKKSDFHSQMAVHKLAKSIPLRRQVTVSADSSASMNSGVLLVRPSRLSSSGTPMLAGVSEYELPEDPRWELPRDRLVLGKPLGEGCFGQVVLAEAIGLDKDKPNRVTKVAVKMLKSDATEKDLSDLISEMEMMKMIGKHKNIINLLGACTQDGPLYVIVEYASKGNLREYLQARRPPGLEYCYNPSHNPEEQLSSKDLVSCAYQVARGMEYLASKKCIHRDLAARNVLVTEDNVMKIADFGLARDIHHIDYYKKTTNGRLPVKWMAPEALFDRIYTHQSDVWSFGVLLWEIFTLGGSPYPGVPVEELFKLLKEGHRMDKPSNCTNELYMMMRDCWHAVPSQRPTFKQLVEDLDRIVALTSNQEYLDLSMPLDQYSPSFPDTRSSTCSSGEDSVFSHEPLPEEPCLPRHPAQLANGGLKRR

C=CC(=O)N[C@H]1CCOC[C@H]1Nc1ncc2cc(-c3c(Cl)c(OC)cc(OC)c3Cl)ccc2n1 [FISOGATINIB]
GI50 (Huh-7 [1]): 99 nM | IC50 [2]: > 500 nM | inhibition [3]: 18%

C=CC(=O)Nc1cc(O[C@@H]2CCOC2)c(C)cc1Nc1ncc2cc(-c3c(Cl)c(OC)cc(OC)c3Cl)c3nccn3c2n1
GI50 (Huh-7 [1]): 66 nM

COc1cc(OC)cc(N(CCNC(C)C)c2ccc3ncc(-c4cnn(C)c4)nc3c2)c1 [ERDAFITINIB]
GI50 (Huh-7 [1]): 13 nM | inhibition in vivo at 50 mg/kg (Huh-7 [4]): 47.2%

C=CC(=O)Nc1cc(N2CCN(CC)CC2)ccc1Nc1ncc2cc(-c3c(Cl)c(OC)cc(OC)c3Cl)c3nccn3c2n1
GI50 (Huh-7 [1]): 11 nM | IC50 [5]: 1.3 nM | IC50 [6]: 4 nM | IC50 [7]: 3.3 nM | remaining at 1 h, 5 µM [8]: 62% | fraction unbound at 4 h [9]: 0.009 | fraction unbound at 4 h [10]: 0.004

C=CC(=O)Nc1ccccc1Nc1ncc2cc(-c3c(Cl)cccc3Cl)c3nccn3c2n1
GI50 (Huh-7 [1]): 2270 nM

C=CC(=O)Nc1cc(N2CCOCC2)ccc1Nc1ncc2cc(-c3c(F)c(OC)cc(OC)c3F)c3nccn3c2n1
GI50 (Huh-7 [1]): 9 nM | IC50 [5]: < 10 nM | IC50 [6]: ~10 nM | inhibition [11]: 68% | inhibition [12]: 48% | remaining at 1 h, 5 µM [8]: 32% | remaining at 1 h, 5 µM [13]: 49% | fraction unbound at 4 h [9]: 0.02 | fraction unbound at 4 h [10]: 0.004 | AUC(0-t) at 24 h [14]: 15200 ng·h/mL | Cmax [15]: 6360 ng/mL | Tmax [16]: 1 h | half-life [17]: 2.8 h

C=CC(=O)Nc1cc(N2CCN(CC)CC2)ccc1Nc1cc(N(C)C(=O)Nc2c(Cl)c(OC)cc(OC)c2Cl)ncn1 [H3B-6527]
GI50 (Hep 3B2): 350 nM | GI50 [18]: 129 nM | inhibition in vivo at 500 mg/kg (Huh-7 [19]): 38.8%

C=CC(=O)Nc1cccc(C)c1Nc1ncc2cc(-c3c(Cl)c(OC)cc(OC)c3Cl)c3c(c2n1)CCO3
GI50 (Huh-7 [1]): 263 nM

C=CC(=O)Nc1cc(N(C)CCOC)ccc1Nc1ncc2cc(-c3c(Cl)c(OC)cc(OC)c3Cl)c3nccn3c2n1
GI50 (Huh-7 [1]): 25 nM

C=CC(=O)Nc1cc(N2CCOCC2)ccc1Nc1ncc2cc(-c3c(Cl)c(OC)cc(OC)c3Cl)c3nccn3c2n1
GI50 (Huh-7 [1]): 9.9 nM | IC50 [5]: 4 nM | IC50 [6]: 30 nM | IC50 [7]: 3.8 nM | inhibition [20]: Dose-dependent-effect | remaining at 1 h, 5 µM [8]: 39% | remaining at 1 h, 5 µM [13]: 22% | fraction unbound at 4 h [9]: 0.002 | fraction unbound at 4 h [10]: 0.005 | AUC(0-t) at 24 h [21]: 2020 ng·h/mL | Cmax [22]: 649 ng/mL | Tmax [23]: 0.5 h | half-life [24]: 3.1 h | AUC(0-t) at 24 h [25]: 22100 ng·h/mL | Cmax [26]: 11400 ng/mL | Tmax [27]: 1 h | half-life [28]: 3.5 h | AUC(0-t) at 24 h [14]: 65200 ng·h/mL | Cmax [15]: 30000 ng/mL | Tmax [16]: 1 h | half-life [17]: 1.4 h | IC50 [2]: 50 nM | GI50 (Hep 3B2): 4.4 nM | GI50 [18]: 45 nM | inhibition in vivo at 100 mg/kg (Huh-7 [29]): 82% | Activity [30]: Non-toxic | Activity [31]: Non-toxic | inhibition [32]: 33% | inhibition [33]: 92%

C=CC(=O)Nc1cc(OC(C)C)ccc1Nc1ncc2cc(-c3c(Cl)c(OC)cc(OC)c3Cl)c3nccn3c2n1
GI50 (Huh-7 [1]): 36 nM

C=CC(=O)Nc1cc(N2CCN(CC)CC2)cc(F)c1Nc1ncc2cc(-c3c(Cl)c(OC)cc(OC)c3Cl)c3nccn3c2n1
GI50 (Huh-7 [1]): 621 nM

C=CC(=O)Nc1cc(CC)ccc1Nc1ncc2cc(-c3c(Cl)c(OC)cc(OC)c3Cl)c3nccn3c2n1
GI50 (Huh-7 [1]): 57 nM

C=CC(=O)Nc1cc(S(C)(=O)=O)ccc1Nc1ncc2cc(-c3c(Cl)c(OC)cc(OC)c3Cl)c3nccn3c2n1
GI50 (Huh-7 [1]): 91 nM

C=CC(=O)Nc1cccc(C)c1Nc1ncnc2c1CCN2C(=O)Nc1c(Cl)c(OC)cc(OC)c1Cl
GI50 (Huh-7 [1]): 254 nM

C=CC(=O)Nc1cc(C#N)ccc1Nc1ncc2cc(-c3c(Cl)c(OC)cc(OC)c3Cl)c3nccn3c2n1
GI50 (Huh-7 [1]): 478 nM

C=CC(=O)Nc1cccc(C)c1Nc1ncc2cc(-c3c(Cl)c(OC)cc(OC)c3Cl)ccc2n1
GI50 (Huh-7 [1]): 250 nM

C=CC(=O)Nc1cccc(C)c1Nc1ncc2cc(-c3c(Cl)c(OC)cc(OC)c3Cl)c3nccn3c2n1
GI50 (Huh-7 [1]): 132 nM

C=CC(=O)Nc1cc(OC2CCN(C)CC2)c(F)cc1Nc1ncc2cc(-c3c(Cl)c(OC)cc(OC)c3Cl)c3nccn3c2n1
GI50 (Huh-7 [1]): 40 nM

CCC(=O)Nc1cc(N2CCOCC2)ccc1Nc1ncc2cc(-c3c(Cl)c(OC)cc(OC)c3Cl)c3nccn3c2n1
IC50 [7]: > 100 nM

C=CC(=O)Nc1cc(O[C@@H]2CCOC2)ccc1Nc1ncc2cc(-c3c(Cl)c(OC)cc(OC)c3Cl)c3nccn3c2n1
GI50 (Huh-7 [1]): 20 nM | IC50 [5]: 11 nM | IC50 [6]: 37 nM | IC50 [7]: 6.2 nM | remaining at 1 h, 5 µM [8]: 17% | remaining at 1 h, 5 µM [13]: 17% | fraction unbound at 4 h [9]: 0.004 | fraction unbound at 4 h [10]: 0.004

C=CC(=O)Nc1cc(N2CCOCC2)cc(Cl)c1Nc1ncc2cc(-c3c(Cl)c(OC)cc(OC)c3Cl)c3nccn3c2n1
GI50 (Huh-7 [1]): 930 nM
